Reference: patent publication US5712253A, “Macrocyclic 13-membered ring derivatives of erythromycins A and B” (Abbott Laboratories, priority 1996, dated 1998)
In brackets after ≈: the same amount, converted by molar mass. Where two headings read alike, the source gives them in different places.

How the values were obtained:
[1] = system: Streptococcus pyogenes EES61; assay: Antibacterial activity (agar dilution method), MIC; type: cell-based; details: unit assumed
Method: (§1) Compounds of the invention were next tested for antibacterial potency, such activity being regarded as an undesirable side effect of motilin […] therapy. Assays were conducted using methodology well-known in the art (the agar dilution method).

Escherichia coli SS = assay: Antibacterial activity (agar dilution method), MIC; type: cell-based; details: unit assumed
Method: as §1

[2] = system: Streptococcus aureus ATCC 7538P; assay: Antibacterial activity (agar dilution method), MIC; type: cell-based; details: unit assumed
Method: as §1

[3] = system: Pseudomonas eruginosa K799/WT; assay: Antibacterial activity (agar dilution method), MIC; type: cell-based; details: unit assumed
Method: as §1

[4] = system: Streptococcus aureus A5177; assay: Antibacterial activity (agar dilution method), MIC; type: cell-based; details: unit assumed
Method: as §1

[5] = system: Streptococcus bovis ATCC 8043; assay: Antibacterial activity (agar dilution method), MIC; type: cell-based; details: unit assumed
Method: as §1

[6] = system: rabbit duodenal smooth muscle; assay: In vitro prokinetic activity: contraction of smooth muscle strips isolated from rabbit small intestine (duodenum); type: cell-based
Method: The compounds of the present invention were tested in vitro for their ability to induce contraction of smooth muscle strips isolated from rabbit small intestine using the following procedure:
Rabbits were sacrificed and 15 cm of duodenum was rapidly removed and placed in ice-cold modified Ringers solution (120 mM sodium chloride, 25 mM sodium bicarbonate, 4.7 mM potassium chloride, 1.25 mM calcium chloride, 1.20 mM magnesium sulfate and 5.6 mM glucose). The longitudinal muscle layer was separated from the circular muscle by blunt dissection and cut into strips of 10×20 mm. Double-folded strips were vertically suspended between two hooks in 10 mL tissue baths with a mechanical preload of 1 g. The upper hook was connected to an […] force transducer, and its displacement was recorded on a Grass polygraph. The tissue baths contained modified Ringers solution at 37° C. and were continuously gassed with 95% oxygen/5% carbon dioxide in order to maintain the pH at 7.5.
After a stabilization period of at least 60 minutes, a contractility dose-response series was performed by adding increasing final concentrations of methacholine (10^-7 M, 10^-6 M and 10^-5 M) in volumes of 100 μL. The bath solutions were replaced at least three times between doses.
After the methacholine dose-response series was completed, a test compound dose response curve was initiated by the same procedure used for the methacholine dose-response series, with at least five concentrations of test compound within the range of 10^-10 M to 10^-4 M. The tissues were washed repeatedly between doses, and the studies were completed by recording the contractile response to 10^-5 M methacholine to ascertain integrity of the muscle preparation. Contractile responses were expressed as percent of maximal methacholine induced contraction. The concentration of test compound which produces half of the maximal contraction (ED50 value) and the negative logarithm of the ED50 value (pED50) were estimated from the dose-response curves. The pED50 values were compared to motilin, (pED50 : 8.10) a known gastrointestinal prokinetic agent.

motilin receptors = molecular target: T1, motilin receptors (Oryctolagus cuniculus, UniProt G1T803); assay: Motilin receptor binding activity ([^125 I]-motilin displacement, rabbit antral smooth muscle)
T1 construct: Motilin receptors were isolated from rabbit antral smooth muscle tissue; from tissue; host or cells: rabbit antral smooth muscle tissue
Text: This ability of the compounds to bind strongly to motilin receptors and the effective absence of elicitation of contractile activity by estimated therapeutic concentration of these compounds in rabbit duodenal smooth muscle together constitute motilin antagonist activity of the compounds.

T1 sequence (G1T803 1-400): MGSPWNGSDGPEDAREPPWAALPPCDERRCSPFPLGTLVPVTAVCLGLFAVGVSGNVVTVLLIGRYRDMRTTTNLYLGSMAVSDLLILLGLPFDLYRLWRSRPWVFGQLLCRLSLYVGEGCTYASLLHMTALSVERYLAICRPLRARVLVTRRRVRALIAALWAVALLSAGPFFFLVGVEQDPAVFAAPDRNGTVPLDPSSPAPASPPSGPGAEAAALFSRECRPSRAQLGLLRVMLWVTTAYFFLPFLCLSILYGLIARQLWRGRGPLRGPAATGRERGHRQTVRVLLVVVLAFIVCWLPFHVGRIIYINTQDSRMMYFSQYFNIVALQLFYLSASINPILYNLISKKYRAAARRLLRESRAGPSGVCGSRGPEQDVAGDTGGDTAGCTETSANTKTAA

| SMILES | MIC [1] | MIC (Escherichia coli SS) | MIC [2] | MIC [3] | MIC [4] | MIC [5] | pED50 (negative logarithm of the concentration producing half of the maximal contraction) ([6]; rabbit duodenum strips, 37° C., percent of maximal methacholine induced contraction) | Kd (motilin receptors) | EC50 ([6]; Oryctolagus cuniculus, rabbit duodenum strips, 37° C., percent of maximal methacholine induced contraction, read-out: pED50 (negative logarithm of the concentration producing half of the maximal contraction) (converted)) | agonism for induction of contractile activity (in words) ([6]; rabbit duodenal smooth muscle) | potency relative to motilin, induction of contractile activity ([6]; rabbit duodenal smooth muscle, pED50 compared to motilin) | motilin receptor binding (in words) (motilin receptors; rabbit antral smooth muscle, [^125 I]-motilin) | Kd (motilin receptors; rabbit antral smooth muscle, [^125 I]-motilin, read-out: pKd, motilin binding (negative logarithm of the concentration displacing 50% of bound [^125 I]-motilin) (converted)) |
| --- | --- | --- | --- | --- | --- | --- | --- | --- | --- | --- | --- | --- | --- |
| CC[C@H]1OC(=O)[C@H](C)[C@@H](O[C@H]2C[C@@](C)(OC)[C@@H](O)[C@H](C)O2)[C@H](C)[C@@H](O[C@@H]2O[C@H](C)C[C@H](N(C)C)[C@H]2O)[C@](C)(O)C[C@@H](C)C(=O)[C@H](C)[C@@H](O)[C@]1(C)O [Erythromycin] | 0.05 µg/mL (≈ 0.0681 µM) | 0.39 µg/mL (≈ 0.531 µM) | 0.2 µg/mL (≈ 0.273 µM) | 0.78 µg/mL (≈ 1.06 µM) | 6.2 µg/mL (≈ 8.45 µM) | 0.05 µg/mL (≈ 0.0681 µM) |  |  |  |  |  |  |  |
| CC[C@H](C)[C@H](NC(=O)[C@@H]1CCCN1C(=O)[C@@H](NC(=O)[C@@H](N)Cc1ccccc1)C(C)C)C(=O)N[C@@H](Cc1ccccc1)C(=O)N[C@H](C(=O)N[C@@H](Cc1ccc(O)cc1)C(=O)NCC(=O)N[C@@H](CCC(=O)O)C(=O)N[C@@H](CC(C)C)C(=O)N[C@@H](CCC(N)=O)C(=O)N[C@@H](CCCNC(=N)N)C(=O)N[C@@H](CCSC)C(=O)N[C@@H](CCC(N)=O)C(=O)N[C@@H](CCC(=O)O)C(=O)N[C@@H](CCCCN)C(=O)N[C@@H](CCC(=O)O)C(=O)N[C@@H](CCCNC(=N)N)C(=O)N[C@@H](CC(N)=O)C(=O)N[C@@H](CCCCN)C(=O)NCC(=O)N[C@@H](CCC(N)=O)C(=O)O)[C@@H](C)O [motilin, reference compound] |  |  |  |  |  |  | 8.10 | 0.794 nM |  |  |  |  |  |
| CC[C@H]1OC(=O)[C@H](C)[C@@H](O[C@H]2C[C@@](C)(OC)C[C@H](C)O2)[C@H](C)[C@@H](O[C@@H]2O[C@H](C)C[C@H](N(C)CC)[C@H]2O)[C@@]2(C)CC(C)=C(O2)C(C(C)F)[C@H]1C (stereo partly shown) [Example 1, Compound of Formula (I); R=H; R^1 =methyl; R^2 =ethyl; R^3 =H; X=F] | 25 µg/mL | > 100 µg/mL | 50 µg/mL | > 100 µg/mL | 50 µg/mL | 25 µg/mL |  |  | > 100000 nM | very weak agonist | more than four orders of magnitude less potent than motilin | binds strongly to motilin receptors | 11.5 nM |
